# Measurements: ChEMBL document CHEMBL5370574, “Discovery and Characterization of Moracin C as an Anti-Gouty Arthritis/Hyperuricemia Candidate by Docking-Based Virtual Screening and Pharmacological Evaluation” (J Nat Prod, 2023)
# Activity calls are given as the source filed them. No cut-off for these calls is given here.
# Columns and labels:
# Rattus norvegicus [1] = assay: Antiarthritic activity against MSU-induced Sprague-Dawley rat OA model assessed as inflammation index at 10 mg/kg, ig administered for 3 days; type: functional; conditions: time 3 day
# [2] = target: T1, Xanthine dehydrogenase/oxidase (Homo sapiens, UniProt P47989); assay: Inhibition of XOD (unknown origin) using xanthine as substrate at 1 uM preincubated for 30 mins followed by xanthine addition measured after 30 mins by microplate reader relative to control; conditions: 0.5 h, time 60 min
# T1 sequence (P47989 whole entry): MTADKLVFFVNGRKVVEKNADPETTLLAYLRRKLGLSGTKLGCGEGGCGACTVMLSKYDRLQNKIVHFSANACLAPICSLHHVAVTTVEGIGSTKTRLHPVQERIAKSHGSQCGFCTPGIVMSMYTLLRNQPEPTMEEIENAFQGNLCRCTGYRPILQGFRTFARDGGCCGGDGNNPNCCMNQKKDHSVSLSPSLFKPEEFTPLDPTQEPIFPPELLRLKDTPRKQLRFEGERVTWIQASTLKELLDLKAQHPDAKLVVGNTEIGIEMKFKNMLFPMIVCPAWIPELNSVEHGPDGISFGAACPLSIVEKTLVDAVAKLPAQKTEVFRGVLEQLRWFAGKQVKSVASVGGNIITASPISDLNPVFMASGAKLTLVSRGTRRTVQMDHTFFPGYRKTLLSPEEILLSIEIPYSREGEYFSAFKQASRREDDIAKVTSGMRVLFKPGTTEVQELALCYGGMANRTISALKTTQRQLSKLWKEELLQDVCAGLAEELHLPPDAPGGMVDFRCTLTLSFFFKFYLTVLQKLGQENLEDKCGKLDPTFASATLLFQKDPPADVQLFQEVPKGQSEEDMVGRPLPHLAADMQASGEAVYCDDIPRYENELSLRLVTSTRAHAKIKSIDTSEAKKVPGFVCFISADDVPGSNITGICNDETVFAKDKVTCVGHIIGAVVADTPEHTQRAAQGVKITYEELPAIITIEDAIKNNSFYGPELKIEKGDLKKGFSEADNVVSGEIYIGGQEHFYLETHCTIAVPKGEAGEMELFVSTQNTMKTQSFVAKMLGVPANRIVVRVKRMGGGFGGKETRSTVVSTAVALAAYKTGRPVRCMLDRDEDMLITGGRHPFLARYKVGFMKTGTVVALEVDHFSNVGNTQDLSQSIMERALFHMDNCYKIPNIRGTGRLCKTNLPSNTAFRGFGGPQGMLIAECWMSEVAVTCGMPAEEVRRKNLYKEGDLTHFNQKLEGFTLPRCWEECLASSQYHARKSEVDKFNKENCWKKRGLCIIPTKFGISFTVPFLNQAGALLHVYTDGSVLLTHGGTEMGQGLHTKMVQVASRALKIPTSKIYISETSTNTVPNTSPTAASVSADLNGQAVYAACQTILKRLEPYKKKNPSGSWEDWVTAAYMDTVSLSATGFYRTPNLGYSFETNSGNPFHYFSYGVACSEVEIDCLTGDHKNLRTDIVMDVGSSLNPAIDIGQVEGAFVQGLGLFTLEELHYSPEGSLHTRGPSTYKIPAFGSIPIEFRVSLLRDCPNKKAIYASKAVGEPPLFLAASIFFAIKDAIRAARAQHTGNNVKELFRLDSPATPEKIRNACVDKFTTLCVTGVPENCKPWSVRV
# [3] = target: T1, Xanthine dehydrogenase/oxidase; assay: Inhibition of XOD (unknown origin) using xanthine as substrate preincubated for 30 mins followed by xanthine addition measured after 30 mins by microplate reader
# Mus musculus [4] = assay: Hypouricemic activity in hypoxanthine/potassium oxonate-induced hyperuricemic Kunming mouse model assessed as decrease in serum uric acid level at 5 to 20 mg/kg, po administered for 7 days measured 4 hrs post last dose by biochemical analyzer; type: functional, organism-based; conditions: dose 5-20 mg/kg, time 7.0 day
# Mus musculus [5] = assay: Hypouricemic activity in hypoxanthine/potassium oxonate-induced hyperuricemic Kunming mouse model assessed as decrease in uric acid level in urine at 5 to 20 mg/kg, po administered for 7 days measured 4 hrs post last dose by automatic biochemical analyzer; type: functional, organism-based; conditions: dose 5-20 mg/kg, time 7.0 day
# Mus musculus [6] = assay: Hypouricemic activity in hypoxanthine/potassium oxonate-induced hyperuricemic Kunming mouse model assessed as decrease in serum XOD level at 5 to 20 mg/kg, po administered for 7 days measured 4 hrs post last dose by automatic biochemical analyzer; type: functional, organism-based; conditions: dose 5-20 mg/kg, time 7.0 day
# Mus musculus [7] = assay: Hypouricemic activity in hypoxanthine/potassium oxonate-induced hyperuricemic Kunming mouse model assessed as decrease in liver XOD level at 5 to 20 mg/kg, po administered for 7 days measured 4 hrs post last dose by automatic biochemical analyzer; type: functional, organism-based; conditions: dose 5-20 mg/kg, time 7.0 day
# RAW264.7 [8] = assay: Antiinflammatory activity in MSU-induced mouse RAW264.7 cells assessed as decrease in TNF-alpha expression preincubated for 2 hrs followed by MSU stimulation and measured after 12 hrs by ELISA; type: functional, cell-based; conditions: dose 1-10 µM, time 14.0 hrs
# RAW264.7 [9] = assay: Antiinflammatory activity in MSU-induced mouse RAW264.7 cells assessed as decrease in IL-1beta expression preincubated for 2 hrs followed by MSU stimulation and measured after 12 hrs by ELISA; type: functional, cell-based; conditions: dose 1-10 µM, time 14.0 hrs
# RAW264.7 [10] = assay: Antiinflammatory activity in MSU-induced mouse RAW264.7 cells assessed as decrease in TNF-alpha mRNA expression at 1 to 10 uM preincubated for 2 hrs followed by MSU stimulation and measured after 12 hrs by qRT-PCR analysis; type: functional, cell-based; conditions: dose 1-10 µM, time 14.0 hrs
# RAW264.7 [11] = assay: Antiinflammatory activity in MSU-induced mouse RAW264.7 cells assessed as decrease in IL-1beta mRNA expression at 1 to 10 uM preincubated for 2 hrs followed by MSU stimulation and measured after 12 hrs by qRT-PCR analysis; type: functional, cell-based; conditions: dose 1-10 µM, time 14.0 hrs
# Rattus norvegicus [12] = assay: Antiarthritic activity against MSU-induced Sprague-Dawley rat OA model assessed as reduction of serum TNF-alpha protein expression level at 5 to 20 mg/kg, ig administered for 3 days by ELISA; type: functional, organism-based; conditions: dose 5-20 mg/kg, time 3.0 day
# Rattus norvegicus [13] = assay: Antiarthritic activity against MSU-induced Sprague-Dawley rat OA model assessed as reduction of serum IL-1beta protein expression level at 5 to 20 mg/kg, ig administered for 3 days by ELISA; type: functional, organism-based; conditions: dose 5-20 mg/kg, time 3.0 day
# Rattus norvegicus [14] = assay: Antiarthritic activity against MSU-induced Sprague-Dawley rat OA model assessed as reduction of serum IL-1beta protein expression level at 10 mg/kg, ig administered for 3 days by ELISA; type: functional, organism-based; conditions: time 3.0 day
# Rattus norvegicus [15] = assay: Antiarthritic activity against MSU-induced Sprague-Dawley rat OA model assessed as inflammation index at 5 mg/kg, ig administered for 3 days; type: functional; conditions: time 3 day
# Rattus norvegicus [16] = assay: Antiarthritic activity against MSU-induced Sprague-Dawley rat OA model assessed as dysfunction index at 5 mg/kg, ig administered for 3 days; type: functional; conditions: time 3 day
# Rattus norvegicus [17] = assay: Antiarthritic activity against MSU-induced Sprague-Dawley rat OA model assessed as toe swelling volume variation at 5 mg/kg, ig administered for 3 days; type: functional; conditions: time 3 day
# Rattus norvegicus [18] = assay: Antiarthritic activity against MSU-induced Sprague-Dawley rat OA model assessed as dysfunction index at 10 mg/kg, ig administered for 3 days; type: functional; conditions: time 3 day
# Rattus norvegicus [19] = assay: Antiarthritic activity against MSU-induced Sprague-Dawley rat OA model assessed as toe swelling volume variation at 10 mg/kg, ig administered for 3 days; type: functional; conditions: time 3 day
# Rattus norvegicus [20] = assay: Antiarthritic activity against MSU-induced Sprague-Dawley rat OA model assessed as inflammation index at 20 mg/kg, ig administered for 3 days; type: functional; conditions: time 3 day
# Rattus norvegicus [21] = assay: Antiarthritic activity against MSU-induced Sprague-Dawley rat OA model assessed as dysfunction index at 20 mg/kg, ig administered for 3 days; type: functional; conditions: time 3 day
# Rattus norvegicus [22] = assay: Antiarthritic activity against MSU-induced Sprague-Dawley rat OA model assessed as toe swelling volume variation at 20 mg/kg, ig administered for 3 days; type: functional; conditions: time 3 day
# Rattus norvegicus [23] = assay: Antiarthritic activity against MSU-induced Sprague-Dawley rat OA model assessed as dysfunction index at 1 mg/kg, ig administered for 3 days; type: functional, organism-based; conditions: time 3.0 day
# Rattus norvegicus [24] = assay: Antiarthritic activity against MSU-induced Sprague-Dawley rat OA model assessed as toe swelling volume variation at 1 mg/kg, ig administered for 3 days; type: functional, organism-based; conditions: time 3.0 day
# Rattus norvegicus [25] = assay: Antiarthritic activity against MSU-induced Sprague-Dawley rat OA model assessed as reduction in NLRP3 mRNA expression level in tissue joint at 5 to 20 mg/kg, ig administered for 3 days by qRT-PCR analysis; type: functional, organism-based; conditions: dose 5-20 mg/kg, time 3.0 day
# Rattus norvegicus [26] = assay: Antiarthritic activity against MSU-induced Sprague-Dawley rat OA model assessed as reduction in ASC mRNA expression level in tissue joint at 5 to 20 mg/kg, ig administered for 3 days by qRT-PCR analysis; type: functional, organism-based; conditions: dose 5-20 mg/kg, time 3.0 day
# Rattus norvegicus [27] = assay: Antiarthritic activity against MSU-induced Sprague-Dawley rat OA model assessed as reduction in caspase-1 mRNA expression level in tissue joint at 5 to 20 mg/kg, ig administered for 3 days by qRT-PCR analysis; type: functional, organism-based; conditions: dose 5-20 mg/kg, time 3.0 day
# Rattus norvegicus [28] = assay: Antiarthritic activity against MSU-induced Sprague-Dawley rat OA model assessed as inflammation index at 1 mg/kg, ig administered for 3 days; type: functional, organism-based; conditions: time 3.0 day
# [29] = target: T2, Solute carrier family 2, facilitated glucose transporter member 9 (Homo sapiens) (UniProt Q9NRM0); assay: Inhibition of GLUT9 (unknown origin) expressed in HEK293T cells assessed as effect on uric acid induced current at 10 uM; type: cell-based
# T2 sequence (whole entry): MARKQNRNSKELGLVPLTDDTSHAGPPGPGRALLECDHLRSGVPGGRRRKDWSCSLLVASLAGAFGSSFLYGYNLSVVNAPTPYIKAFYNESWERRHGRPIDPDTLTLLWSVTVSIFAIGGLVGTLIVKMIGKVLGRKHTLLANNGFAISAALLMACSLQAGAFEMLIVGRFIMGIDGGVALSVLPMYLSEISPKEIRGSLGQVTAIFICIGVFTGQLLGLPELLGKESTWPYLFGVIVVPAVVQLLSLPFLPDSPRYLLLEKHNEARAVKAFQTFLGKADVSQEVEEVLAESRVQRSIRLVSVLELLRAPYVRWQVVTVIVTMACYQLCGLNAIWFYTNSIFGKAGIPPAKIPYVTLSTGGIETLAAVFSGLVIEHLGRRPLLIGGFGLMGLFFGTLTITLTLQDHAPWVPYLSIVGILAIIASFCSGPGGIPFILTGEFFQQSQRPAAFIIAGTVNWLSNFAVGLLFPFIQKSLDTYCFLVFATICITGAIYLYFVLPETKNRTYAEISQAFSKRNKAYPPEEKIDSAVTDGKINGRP
# [30] = target: T3, Solute carrier family 22 member 12 (Homo sapiens, UniProt Q96S37); assay: Inhibition of URAT1 (unknown origin) expressed in HEK293T cells assessed as reduction in 14C-uric acid uptake at 10 uM; type: cell-based
# T3 sequence (Q96S37 whole entry): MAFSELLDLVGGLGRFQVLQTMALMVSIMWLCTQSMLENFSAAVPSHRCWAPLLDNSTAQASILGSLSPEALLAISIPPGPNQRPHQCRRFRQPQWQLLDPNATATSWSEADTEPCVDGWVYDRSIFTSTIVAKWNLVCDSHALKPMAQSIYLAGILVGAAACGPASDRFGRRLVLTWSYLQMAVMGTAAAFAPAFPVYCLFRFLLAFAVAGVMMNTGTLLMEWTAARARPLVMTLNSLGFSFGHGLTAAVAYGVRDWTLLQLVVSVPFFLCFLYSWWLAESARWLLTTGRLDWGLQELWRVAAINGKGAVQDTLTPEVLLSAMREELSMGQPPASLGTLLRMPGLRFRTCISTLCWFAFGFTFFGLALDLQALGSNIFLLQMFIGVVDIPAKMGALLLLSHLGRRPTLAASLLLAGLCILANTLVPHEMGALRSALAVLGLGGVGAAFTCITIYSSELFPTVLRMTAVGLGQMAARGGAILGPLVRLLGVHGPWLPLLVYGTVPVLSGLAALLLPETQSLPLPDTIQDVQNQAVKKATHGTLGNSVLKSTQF
# Mus musculus [31] = assay: Hypouricemic activity in hypoxanthine/potassium oxonate-induced hyperuricemic Kunming mouse model assessed as decrease in serum XOD level at 10 mg/kg, po administered for 7 days measured 4 hrs post last dose by automatic biochemical analyzer; type: functional, organism-based; conditions: time 7.0 day
# Mus musculus [32] = assay: Hypouricemic activity in hypoxanthine/potassium oxonate-induced hyperuricemic Kunming mouse model assessed as decrease in liver XOD level at 10 mg/kg, po administered for 7 days measured 4 hrs post last dose by automatic biochemical analyzer; type: functional, organism-based; conditions: time 7.0 day
# [33] = target: T1, Xanthine dehydrogenase/oxidase; assay: Inhibition of XOD (unknown origin)
# [34] = target: T3, Solute carrier family 22 member 12; assay: Inhibition of URAT1(unknown origin)
compound,measurement,setting,value
CC(C)=CCc1c(O)cc(-c2cc3ccc(O)cc3o2)cc1O [MORACIN C],Activity_index,Rattus norvegicus [1],1
same,inhibition at 1 µM,[2],70%
same,IC50,[3],250 nM
same,Activity,Mus musculus [4],Active
same,Activity,Mus musculus [5],inactive
same,Activity,Mus musculus [6],Active
same,Activity,Mus musculus [7],Active
same,Activity,RAW264.7 [8],Dose-Dependent Effect
same,Activity,RAW264.7 [9],Dose-Dependent Effect
same,Activity,RAW264.7 [10],Active
same,Activity,RAW264.7 [11],Active
same,Activity,Rattus norvegicus [12],Active
same,Activity,Rattus norvegicus [13],Active
same,Activity,Rattus norvegicus [14],Active
same,Activity_index,Rattus norvegicus [15],1
same,Activity_index,Rattus norvegicus [16],0
same,Activity,Rattus norvegicus [17],0.16 mL
same,Activity_index,Rattus norvegicus [18],0
same,Activity,Rattus norvegicus [19],0.1 mL
same,Activity_index,Rattus norvegicus [20],0.6
same,Activity_index,Rattus norvegicus [21],0
same,Activity,Rattus norvegicus [22],0.06 mL
same,Activity,Rattus norvegicus [23],Active
same,Activity,Rattus norvegicus [24],Active
same,Activity,Rattus norvegicus [25],Active
same,Activity,Rattus norvegicus [26],Active
same,Activity,Rattus norvegicus [27],Active
same,Activity,Rattus norvegicus [28],Active
same,inhibition,[29],inactive
same,inhibition (INH),[30],Not Active
COc1ccc(-c2cc(=O)c3c(O)c(OC)c(OC)cc3o2)cc1 [SALVIGENIN],inhibition at 1 µM,[2],< 20%
Cc1nc(-c2ccc(OCC(C)C)c(C#N)c2)sc1C(=O)O [FEBUXOSTAT],inhibition at 1 µM,[2],75%
same,IC50,[3],160 nM
same,Activity,Mus musculus [31],Active
same,Activity,Mus musculus [32],Active
CC1(C)C=Cc2c(O)cc(-c3cc4ccc(O)cc4o3)cc2O1 [MORACIN D],inhibition at 1 µM,[2],32%
same,IC50,[3],5100 nM
O=c1c(O)c(-c2ccc(O)cc2O)oc2cc(O)cc(O)c12 [MORIN],IC50,[33],25000 nM
same,Ki,[34],2000 nM
CC1(C)C=Cc2cc(-c3cc(=O)c4c(O)cc(O)cc4o3)ccc2O1,inhibition at 1 µM,[2],< 20%
